These are literature values, as cited in patent US11679093B2, “2-naphthimidamides, analogues thereof, and methods of treatment using same” (priority 2018, dated 2023).

In the data set the test system is Influenza A virus (IAV). The conditions noted are these: fully differentiated mucociliated bronchiolar epithelium isolated from multiple human donors.

With `N=C(N)Nc1ccc(C(=O)Oc2ccc3cc(C(=N)N)ccc3c2)cc1` [Nafamostat, 6-carbamimidoylnaphthalen-2-yl 4-guanidinobenzoate], the antiviral activity entry was “exhibit antiviral activity”.
